pIC50: −log10 of the molar value. The source made the active and inactive calls. The rule behind the calls is not given here.
Columns and labels:
[1] = Dark toxicity against human NHDF cells assessed as reduction in cell viability incubated for 24 hrs by MTT assay; type: cell-based
[2] = Phototoxicity against human NHDF cells assessed as reduction in cell viability preincubated for 24 hrs followed by 7 mins of LED light irradiation by MTT assay; type: toxicity, cell-based
[3] = Phototoxicity ratio of IC50 for cytotoxicity against human NHDF cells assessed as reduction in cell viability in dark to IC50 for phototoxicity against human NHDF cells upon LED light irradiation; type: toxicity, cell-based; settings: read-out: Ratio IC50
[4] = Dark toxicity against human Caco-2 cells assessed as reduction in cell viability incubated for 24 hrs by MTT assay; type: cell-based
[5] = Phototoxicity against human Caco-2 cells assessed as reduction in cell viability preincubated for 24 hrs followed by 7 mins of LED light irradiation by MTT assay; type: toxicity, cell-based; settings: Caco-2, light or radiation study
[6] = Phototoxicity ratio of IC50 for cytotoxicity against human Caco-2 cells assessed as reduction in cell viability in dark to IC50 for phototoxicity against human Caco-2 cells upon LED light irradiation; type: toxicity, cell-based
[7] = Selectivity ratio of IC50 for phototoxicity against human NHDF cells upon LED light irradiation to IC50 for phototoxicity against human Caco-2 cells upon LED light irradiation; type: toxicity, cell-based; settings: NHDF cells versus Caco-2 cells, read-out: Ratio IC50
[8] = Dark toxicity against human HeLa cells assessed as reduction in cell viability incubated for 24 hrs by MTT assay; type: cell-based
[9] = Phototoxicity against human HeLa cells assessed as reduction in cell viability preincubated for 24 hrs followed by 7 mins of LED light irradiation by MTT assay; type: toxicity, cell-based; settings: light or radiation study
[10] = Phototoxicity ratio of IC50 for cytotoxicity against human HeLa cells assessed as reduction in cell viability in dark to IC50 for phototoxicity against human HeLa cells upon LED light irradiation; type: toxicity, cell-based
[11] = Selectivity ratio of IC50 for phototoxicity against human NHDF cells upon LED light irradiation to IC50 for phototoxicity against human HeLa cells upon LED light irradiation; type: toxicity, cell-based; settings: NHDF cells versus HeLa cells, read-out: Ratio IC50
[12] = Dark toxicity against human MCF7 cells assessed as reduction in cell viability incubated for 24 hrs by MTT assay; type: cell-based
[13] = Phototoxicity against human MCF7 cells assessed as reduction in cell viability preincubated for 24 hrs followed by 7 mins of LED light irradiation by MTT assay; type: toxicity, cell-based; settings: MCF7, light or radiation study
[14] = Phototoxicity ratio of IC50 for cytotoxicity against human MCF7 cells assessed as reduction in cell viability in dark to IC50 for phototoxicity against human MCF7 cells upon LED light irradiation; type: toxicity, cell-based
[15] = Selectivity ratio of IC50 for phototoxicity against human NHDF cells upon LED light irradiation to IC50 for phototoxicity against human MCF7 cells upon LED light irradiation; type: toxicity, cell-based; settings: NHDF cells versus MCF7 cells, read-out: Ratio IC50
[16] = Dark toxicity against human PC-3 cells assessed as reduction in cell viability incubated for 24 hrs by MTT assay; type: cell-based
[17] = Phototoxicity against human PC-3 cells assessed as reduction in cell viability preincubated for 24 hrs followed by 7 mins of LED light irradiation by MTT assay; type: toxicity, cell-based; settings: PC-3, light or radiation study
[18] = Phototoxicity ratio of IC50 for cytotoxicity against human PC-3 cells assessed as reduction in cell viability in dark to IC50 for phototoxicity against human PC-3 cells upon LED light irradiation; type: toxicity, cell-based
[19] = Selectivity ratio of IC50 for phototoxicity against human NHDF cells upon LED light irradiation to IC50 for phototoxicity against human PC-3 cells upon LED light irradiation; type: toxicity, cell-based; settings: NHDF cells versus PC-3 cells, read-out: Ratio IC50
HeLa [20] = assay: Induction of morphological change in human HeLa cells assessed as rounded cell morphology at 0.25 uM preincubated for 24 hrs followed by 7 mins of LED light irradiation and measured upto 48 hrs by microscopic analysis; type: functional, cell-based; settings: time min <=4327
HeLa [21] = assay: Induction of morphological change in human HeLa cells assessed as cell shrinkage at 0.25 uM preincubated for 24 hrs followed by 7 mins of LED light irradiation and measured upto 48 hrs by microscopic analysis; type: functional, cell-based; settings: time min <=4327
HeLa [22] = assay: Induction of morphological change in human HeLa cells assessed as plasma membrane rupture at 1 uM preincubated for 24 hrs followed by 7 mins of LED light irradiation and measured upto 48 hrs by microscopic analysis; type: functional; settings: time min <=4327
HeLa [23] = assay: Induction of morphological change in human HeLa cells assessed as intracellular space dilation at 1 uM preincubated for 24 hrs followed by 7 mins of LED light irradiation and measured upto 48 hrs by microscopic analysis; type: functional, cell-based; settings: time min <=4327
[24] = Genotoxicity in human HeLa cells assessed as genetic damage index at 1 uM measured after 24 hrs in absence of light by alkali comet assay; type: toxicity, cell-based
[25] = Drug localization in mitochondria of human HeLa cells at 1 uM incubated for 24 hrs by Rhodamine 123 based confocal laser scanning microscopy analysis; type: ADME
HeLa [26] = assay: Induction of cell cycle arrest in human HeLa cells assessed as accumulation in G0/G1 phase at 1 uM by PI staining based flow cytometry analysis (reference value: 67.03 %); type: functional
HeLa [27] = assay: Induction of cell cycle arrest in human HeLa cells assessed as accumulation in S phase at 1 uM by PI staining based flow cytometry analysis (reference value: 32.14 %); type: functional
HeLa [28] = assay: Induction of cell cycle arrest in human HeLa cells assessed as accumulation in G2/M phase at 1 uM by PI staining based flow cytometry analysis (reference value: 4.79 %); type: functional
HeLa [29] = assay: Induction of cell cycle arrest in human HeLa cells assessed as accumulation in G0/G1 phase at 0.24 uM by PI staining based flow cytometry analysis (reference value: 67.03 %); type: functional
HeLa [30] = assay: Induction of cell cycle arrest in human HeLa cells assessed as accumulation in S phase at 0.24 uM by PI staining based flow cytometry analysis (reference value: 32.14 %); type: functional
HeLa [31] = assay: Induction of cell cycle arrest in human HeLa cells assessed as accumulation in G2/M phase at 0.24 uM by PI staining based flow cytometry analysis (reference value: 4.79 %); type: functional
HeLa [32] = assay: Induction of cell cycle arrest in human HeLa cells assessed as accumulation in G0/G1 phase at 0.24 uM with red light radiation for 7 mins by PI staining based flow cytometry analysis (reference value: 63.18 %); type: functional
HeLa [33] = assay: Induction of cell cycle arrest in human HeLa cells assessed as accumulation in S phase at 0.24 uM with red light radiation for 7 mins by PI staining based flow cytometry analysis (reference value: 32.09 %); type: functional
HeLa [34] = assay: Induction of cell cycle arrest in human HeLa cells assessed as accumulation in G2/M phase at 0.24 uM with red light radiation for 7 mins by PI staining based flow cytometry analysis (reference value: 4.73 %); type: functional
HeLa [35] = assay: Induction of morphological change in human HeLa cells assessed as reduction in adhesion at 0.25 uM preincubated for 24 hrs followed by 7 mins of LED light irradiation and measured upto 48 hrs by microscopic analysis; type: functional, cell-based; settings: time min <=4327
[36] = Drug localization in lysosome of human HeLa cells at 1 uM incubated for 24 hrs by Green Fluorescent Protein based confocal laser scanning microscopy analysis; type: ADME, subcellular
HeLa [37] = assay: Induction of apoptosis in human HeLa cells at 0.24 uM preincubated for 24 hrs followed by 7 mins LED light irradiation and measured after 24 hrs by PI staining based flow cytometry analysis; type: functional; settings: time 2887 min, 48.12 h
HeLa [38] = assay: Induction of apoptosis in human HeLa cells assessed as increase in DNA cleavage at 1 uM preincubated for 24 hrs followed by 7 mins LED light irradiation and measured after 24 hrs by PI staining based flow cytometry analysis; type: functional; settings: time 2887 min, 48.12 h
Albumin = Albumin (Homo sapiens, UniProt P02768); assay: Binding affinity to human serum albumin assessed as binding constant by fluorescence based assay
Albumin, sequence (P02768 whole entry): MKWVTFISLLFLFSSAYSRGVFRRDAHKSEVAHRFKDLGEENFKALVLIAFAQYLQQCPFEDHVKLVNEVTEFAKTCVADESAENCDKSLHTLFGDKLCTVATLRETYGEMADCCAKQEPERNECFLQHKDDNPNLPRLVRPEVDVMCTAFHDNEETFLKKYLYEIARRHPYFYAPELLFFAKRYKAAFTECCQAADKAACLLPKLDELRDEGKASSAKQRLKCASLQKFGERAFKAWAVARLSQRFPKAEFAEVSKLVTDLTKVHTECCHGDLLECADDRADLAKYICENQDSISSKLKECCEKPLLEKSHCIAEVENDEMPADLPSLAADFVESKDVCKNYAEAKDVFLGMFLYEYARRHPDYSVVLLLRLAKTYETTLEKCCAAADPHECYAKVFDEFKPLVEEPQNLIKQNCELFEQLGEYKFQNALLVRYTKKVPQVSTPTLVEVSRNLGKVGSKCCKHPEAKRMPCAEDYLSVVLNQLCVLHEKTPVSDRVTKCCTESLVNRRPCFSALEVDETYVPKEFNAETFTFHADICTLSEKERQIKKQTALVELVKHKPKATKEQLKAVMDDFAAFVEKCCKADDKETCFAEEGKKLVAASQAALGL

Drug uptake [25]: Active | Drug uptake [36]: Not Active | Kb (Albumin): 6.93 10^5/M
Structure (SMILES): CCN1/C(=C/C2=C(NCc3ccccn3)C(=C/C3=[N+](CC)c4ccc5ccccc5c4C3(C)C)/C2=O)C(C)(C)c2c1ccc1ccccc21.[I-]
IC50 at 24 h [1]: 2.13 µM | IC50 at 24 h [2]: 0.263 µM | selectivity ratio [3]: 8.1 | IC50 at 24 h [4]: 2.02 µM | pIC50 [5]: 7.04 | Ratio IC50 [6]: 21.9 | selectivity ratio [7]: 2.86 | IC50 at 24 h [8]: 2.18 µM | pIC50 [9]: 6.62 | Ratio IC50 [10]: 9.1 | selectivity ratio [11]: 1.1 | IC50 at 24 h [12]: 1.61 µM | pIC50 [13]: 6.78 | Ratio IC50 [14]: 9.8 | selectivity ratio [15]: 1.59 | IC50 at 24 h [16]: 2.07 µM | pIC50 [17]: 7.06 | Ratio IC50 [18]: 23.8 | selectivity ratio [19]: 3.02 | Activity (HeLa [20]): Active | Activity (HeLa [21]): Active | Activity (HeLa [22]): Active | Activity (HeLa [23]): Active | Activity [24]: 24 a.u. | Activity (HeLa [26]): 68.34% | Activity (HeLa [27]): 26.68% | Activity (HeLa [28]): 4.98% | Activity (HeLa [29]): 73.97% | Activity (HeLa [30]): 22.04% | Activity (HeLa [31]): 4% | Activity (HeLa [32]): 67.14% | Activity (HeLa [33]): 16.91% | Activity (HeLa [34]): 15.95% | Activity (HeLa [35]): Active | Activity (HeLa [37]): 2% | Activity (HeLa [38]): 68%

Source: ChEMBL document CHEMBL5042514, “Picolylamine-functionalized benz[e]indole squaraine dyes: Synthetic approach, characterization and in vitro efficacy as potential anticancer phototherapeutic agents” (Eur J Med Chem, 2022)
